This test deals with T1, human TrkB kinase (Homo sapiens, UniProt Q16620).
T1 construct: The intracellular domain of a HIS-tagged human TrkB kinase; His tag; made in house; host or cells: Sf9 insect cells
As to the kind of experiment: TrkB Assay Format (HTRF kinase assay). The class given is biochemical. As to conditions: Trk inhibitory activity in the in-vitro TrkB HTRF assay. On the procedure: TrkB kinase activity is being measured against its ability to phosphorylate synthetic tyrosine residues within a generic polypeptide substrate using homogenous time-resolved fluorescence (HTRF) technology. The intracellular domain of a HIS-tagged human TrkB kinase was expressed in SF9 cells and purified using standard nickel column chromatography. After the kinase is incubated with a biotinylated substrate and adenosine triphosphate (ATP) for 50 minutes at room temperature, the kinase reaction is stopped by the addition of 60 mM ethylenediaminetetraacetic acid (EDTA). The reaction is performed in 384 well microtitre plates and reaction products are detected with the addition of strepavidin-linked and phosphotyrosine-specific antibodies using the Tecan Ultra Evolution Microplate Fluometer after an additional 3-hour incubation at room temperature.
In general terms: Time-resolved FRET reads energy transfer from a long-lived donor to a nearby acceptor.

T1 sequence (Q16620 455-822 limits assumed): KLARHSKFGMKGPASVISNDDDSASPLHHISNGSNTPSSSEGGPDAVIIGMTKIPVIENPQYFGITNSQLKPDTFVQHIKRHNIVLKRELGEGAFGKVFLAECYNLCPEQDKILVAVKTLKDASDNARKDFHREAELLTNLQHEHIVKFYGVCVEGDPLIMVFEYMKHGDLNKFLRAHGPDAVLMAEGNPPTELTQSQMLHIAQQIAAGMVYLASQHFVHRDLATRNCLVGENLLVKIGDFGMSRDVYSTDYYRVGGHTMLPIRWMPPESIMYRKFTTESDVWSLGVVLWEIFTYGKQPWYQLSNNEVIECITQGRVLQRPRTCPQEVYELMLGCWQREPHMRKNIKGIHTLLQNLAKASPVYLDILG

As a reminder, the IC50 is the point on the concentration scale where inhibition reaches its midpoint. Consider `C[C@H](Nc1nccc(Nc2cc(C3CC3)n[nH]2)n1)c1ccc(F)cc1` [Example 42, N^4-(3-Cyclopropyl-1H-pyrazol-5-yl)-N^2-[(1S)-1-(4-fluorophenyl)ethyl]pyrimidine-2,4-diamine], for which the half-inhibitory concentration (IC50) turned out to be 67 nM. The figure for `OCC[C@H](Nc1nc(Nc2cc(C3CC3)[nH]n2)c2sccc2n1)c1ccc(F)cc1` [Example 64, (3S)-3-({4-[(5-Cyclopropyl-1H-pyrazol-3-yl)amino]thieno[3,2-d]pyrimidin-2-yl}amino)-3-(4-fluorophenyl)propan-1-ol] is 59 nM; for `COc1ccc2nc(N[C@@H](CO)c3ccc(F)cc3)nc(Nc3cc(C4CC4)[nH]n3)c2c1` [Example 80, (2R)-2-({4-[(5-Cyclopropyl-1H-pyrazol-3-yl)amino]-6-methoxyquinazolin-2-yl}amino)-2-(4-fluorophenyl)ethanol] it is 87 nM.

For the origin of these results see patent US20100152219A1, “PYRAZOLE DERIVATIVES AS INHIBITORS OF RECEPTOR TYROSINE KINASES” (ASTRAZENECA R&D, priority 2003, published 2010).
